Reference: patent US8796245B2 (TetraPhase Pharmaceuticals, Inc., priority 2008, dated 2014)
In brackets after ≈: the same amount, converted by molar mass.

Tests used:
Type in all cases: cell-based
[1] = tested on: S. pneumoniae SP160 (tet resistant: tet M); experiment: Minimum inhibitory concentration assay, SP160; conditions: Streptococcus pneumoniae, read-out: MICs SP160
Method: (§1) Frozen bacterial strains were thawed and subcultured onto Mueller Hinton Broth (MHB) or other appropriate media (Streptococcus requires blood and Haemophilus requires hemin and NAD). Following incubation overnight, the strains were subcultured onto Mueller Hinton Agar and again incubated overnight. […] Isolated colonies were selected to prepare a starting inoculum equivalent to a 0.5 McFarland standard. The starting inoculum was diluted 1:125 using MHB for further use. Test compounds were prepared by dilution in sterile water to a final concentration of 5.128 mg/mL. Antibiotics (stored frozen, thawed and used within 3 hours of thawing) and compounds were further diluted to the desired working concentrations.
(§2) The assays were run as follows. Fifty μL of MHB was added to wells 2-12 of a 96-well plate. One hundred […] of appropriately diluted antibiotics was added to well 1. Fifty μL of antibiotics was removed from well 1 and added to well 2 and the contents of well 2 mixed by pipetting up and down five times. Fifty μL of the mixture in well 2 was removed and added to well 3 and mixed as above. Serial dilutions were continued in the same manner through well 12. Fifty μL was removed from well 12 so that all contained 50 μL. Fifty μL of the working inoculum was then added to all test wells. A growth control well was prepared by adding 50 μL of working inoculum and 50 μL of MHB to an empty well. The plates were then incubated at 37° C. overnight, removed from the incubator and each well was read on a plate reading mirror. The lowest concentration (MIC) of test compound that inhibited the growth of the bacteria was recorded.

[2] = tested on: K. pneumoniae ATCC 13883 (KP109); experiment: Minimum inhibitory concentration assay, KP109; conditions: Klebsiella pneumoniae, ATCC13883; K. pneumoniae ATCC 13883, wt; read-out: MICs KP109
Method: as §1, §2

[3] = tested on: E. faecalis ATCC 29212 (EF103); experiment: Minimum inhibitory concentration assay, EF103; conditions: Enterococcus faecalis, ATCC29212, read-out: MICs EF103
Method: as §1, §2

[4] = tested on: S. aureus ATCC 13709 (SA100, MSSA, Smith strain); experiment: Minimum inhibitory concentration assay, SA100; conditions: Staphylococcus aureus; S. aureus ATCC 13709, MSSA Smith strain; read-out: MICs SA100
Method: as §1, §2

[5] = tested on: E. faecalis EF159 (tet resistant: tetM); experiment: Minimum inhibitory concentration assay, EF159; conditions: Enterococcus faecalis, read-out: MICs EF159
Method: as §1, §2

[6] = tested on: P. aeruginosa ATCC 27853 (PA111); experiment: Minimum inhibitory concentration assay, PA111; conditions: Pseudomonas aeruginosa, ATCC27853; P. aeruginosa ATCC 27853, wt; read-out: MICs PA111
Method: as §1, §2

[7] = tested on: E. cloacae ATCC 13047 (EC108); experiment: Minimum inhibitory concentration assay, EC108; conditions: Enterobacter cloacae, ATCC13047; E. cloacae ATCC 13047, wt; read-out: MICs EC108
Method: as §1, §2

[8] = tested on: E. coli ATCC 25922 (EC107); experiment: Minimum inhibitory concentration assay, EC107; conditions: Escherichia coli, ATCC25922; E. coli ATCC 25922, wt; read-out: MICs EC107
Method: as §1, §2

[9] = tested on: E. coli EC155 (tet resistant: tetA efflux); experiment: microbe, parasite or virus in culture; conditions: Escherichia coli; E. coli tet resistant: tetA (efflux); read-out: MICs EC155
Method: as §1, §2

[10] = tested on: S. aureus SA158 (tet resistant: tetK efflux); experiment: microbe, parasite or virus in culture; conditions: Staphylococcus aureus, read-out: MICs SA158
Method: as §1, §2

[11] = tested on: K. pneumoniae KP153 (tet resistant: tetA efflux); experiment: microbe, parasite or virus in culture; conditions: Klebsiella pneumoniae, read-out: MICs KP153
Method: as §1, §2

[12] = tested on: S. aureus SA161 (tet resistant: tet(M) ribosomal protection); experiment: Minimum inhibitory concentration assay, SA161; conditions: Staphylococcus aureus, read-out: MICs SA161
Method: as §1, §2

[13] = tested on: A. baumanii ATCC 19606 (AB110); experiment: Minimum inhibitory concentration assay, AB110; conditions: Acinetobacter baumannii, ATCC19606; A. baumanii ATCC 19606, wt; read-out: MICs AB110
Method: as §1, §2

[14] = tested on: S. pneumoniae ATCC 49619 (SP106); experiment: Minimum inhibitory concentration assay, SP106; conditions: Streptococcus pneumoniae, ATCC49619; S. pneumoniae ATCC 49619, wt; read-out: MICs SP106
Method: as §1, §2

[15] = tested on: S. aureus ATCC 29213 (SA101, MSSA); experiment: Minimum inhibitory concentration assay, SA101; conditions: Staphylococcus aureus; S. aureus ATCC 29213, MSSA control; read-out: MICs SA101
Method: as §1, §2

| SMILES | MIC [1] [µg/mL] | MIC [2] [µg/mL] | MIC [3] [µg/mL] | MIC [4] [µg/mL] | MIC [5] [µg/mL] | MIC [6] [µg/mL] | MIC [7] [µg/mL] | MIC [8] [µg/mL] | MIC [9] [µg/mL] | MIC [10] [µg/mL] | MIC [11] [µg/mL] | MIC [12] [µg/mL] | MIC [13] [µg/mL] | MIC [14] [µg/mL] | MIC [15] [µg/mL] |
| --- | --- | --- | --- | --- | --- | --- | --- | --- | --- | --- | --- | --- | --- | --- | --- |
| CN(C)[C@@H]1C(O)=C(C(N)=O)C(=O)[C@@]2(O)C(O)=C3C(=O)c4c(O)c(NC(=O)CN5CC[C@H](F)C5)cc(F)c4C[C@H]3C[C@@H]12 [Compound 36] | ≤ 0.0156 | 4 (≈ 6.94 µM) | 0.25 (≈ 0.434 µM) | 0.5 (≈ 0.867 µM) | 0.25 (≈ 0.434 µM) | > 32 | 4 (≈ 6.94 µM) | 2 (≈ 3.47 µM) | 32 (≈ 55.5 µM) | 1 (≈ 1.73 µM) | 32 (≈ 55.5 µM) | 0.5 (≈ 0.867 µM) | 0.125 (≈ 0.217 µM) | ≤ 0.0156 | 0.25 (≈ 0.434 µM) |
| CN(C)[C@@H]1C(O)=C(C(N)=O)C(=O)[C@@]2(O)C(O)=C3C(=O)c4c(O)c(NC(=O)CN5CCOCC5)cc(F)c4C[C@H]3C[C@@H]12 [Compound 44] | 1 (≈ 1.74 µM) | > 32 | 8 (≈ 13.9 µM) | 4 (≈ 6.96 µM) | 8 (≈ 13.9 µM) | > 32 | > 32 | 32 (≈ 55.7 µM) | > 32 | 8 (≈ 13.9 µM) | > 32 | 8 (≈ 13.9 µM) | 8 (≈ 13.9 µM) | 0.5 (≈ 0.87 µM) | 4 (≈ 6.96 µM) |
| CCCNCC(=O)Nc1cc(F)c2c(c1O)C(=O)C1=C(O)[C@]3(O)C(=O)C(C(N)=O)=C(O)[C@@H](N(C)C)[C@@H]3C[C@@H]1C2 [Compound 12] | ≤ 0.0156 | 1 (≈ 1.83 µM) | ≤ 0.0156 | ≤ 0.0156 | 0.0625 (≈ 0.114 µM) | 16 (≈ 29.3 µM) | 1 (≈ 1.83 µM) | 0.25 (≈ 0.457 µM) | 8 (≈ 14.6 µM) | 0.5 (≈ 0.915 µM) | 4 (≈ 7.32 µM) | 0.125 (≈ 0.229 µM) | 1 (≈ 1.83 µM) | ≤ 0.0156 | ≤ 0.0156 |
| CN(C)[C@@H]1C(O)=C(C(N)=O)C(=O)[C@@]2(O)C(O)=C3C(=O)c4c(O)c(NC(=O)CN5CCCCC5)cc(F)c4C[C@H]3C[C@@H]12 [Compound 43] | ≤ 0.0156 | 2 (≈ 3.49 µM) | 0.25 (≈ 0.437 µM) | 0.5 (≈ 0.873 µM) | 0.5 (≈ 0.873 µM) | 32 (≈ 55.9 µM) | 4 (≈ 6.99 µM) | 1 (≈ 1.75 µM) | 4 (≈ 6.99 µM) | 0.5 (≈ 0.873 µM) | 4 (≈ 6.99 µM) | 1 (≈ 1.75 µM) | 0.125 (≈ 0.218 µM) | ≤ 0.0156 | 0.5 (≈ 0.873 µM) |
| CN(C)[C@@H]1C(O)=C(C(N)=O)C(=O)[C@@]2(O)C(O)=C3C(=O)c4c(O)c(NC(=O)CNCC(C)(C)C)cc(F)c4C[C@H]3C[C@@H]12 [Compound 15] | 0.016 (≈ 0.0278 µM) | 2 (≈ 3.48 µM) | 0.5 (≈ 0.87 µM) | 0.5 (≈ 0.87 µM) | 0.5 (≈ 0.87 µM) | 16 (≈ 27.8 µM) | 4 (≈ 6.96 µM) | 1 (≈ 1.74 µM) | 4 (≈ 6.96 µM) | 0.25 (≈ 0.435 µM) | 4 (≈ 6.96 µM) | 0.5 (≈ 0.87 µM) | 0.125 (≈ 0.218 µM) | 0.016 (≈ 0.0278 µM) | 0.5 (≈ 0.87 µM) |
| CCCCCCNCC(=O)Nc1cc(F)c2c(c1O)C(=O)C1=C(O)[C@]3(O)C(=O)C(C(N)=O)=C(O)[C@@H](N(C)C)[C@@H]3C[C@@H]1C2 [Compound 14] | 0.125 (≈ 0.212 µM) | 1 (≈ 1.7 µM) | 0.125 (≈ 0.212 µM) | 0.25 (≈ 0.425 µM) | 0.25 (≈ 0.425 µM) | 16 (≈ 27.2 µM) | 2 (≈ 3.4 µM) | 0.5 (≈ 0.849 µM) | 4 (≈ 6.8 µM) | 0.25 (≈ 0.425 µM) | 2 (≈ 3.4 µM) | 0.5 (≈ 0.849 µM) | 0.25 (≈ 0.425 µM) | 0.03 (≈ 0.051 µM) | 0.5 (≈ 0.849 µM) |
| CN(C)CC(=O)Nc1cc(F)c2c(c1O)C(=O)C1=C(O)[C@]3(O)C(=O)C(C(N)=O)=C(O)[C@@H](N(C)C)[C@@H]3C[C@@H]1C2 [Compound 23] | ≤ 0.0156 | 0.5 (≈ 0.939 µM) | ≤ 0.0156 | 0.5 (≈ 0.939 µM) | 0.0313 (≈ 0.0588 µM) | 8 (≈ 15 µM) | 1 (≈ 1.88 µM) | 0.125 (≈ 0.235 µM) | 8 (≈ 15 µM) | 0.25 (≈ 0.469 µM) | 8 (≈ 15 µM) | 0.125 (≈ 0.235 µM) | 0.125 (≈ 0.235 µM) | ≤ 0.0156 | ≤ 0.0156 |
